Usually bioavailability stands for the share of a dose that reaches the circulation, judged against a reference dose that is usually intravenous. A lower bioavailability goes with poor availability.

Data set [1] is described as follows: Oral bioavailability. The data set is classed as ADME, organism-based, Canis lupus familiaris. To be noted: dog, in vivo.
In data set [2] the test system is Rattus norvegicus. Nature of the data set: Antihypertensive potency expressed as effective dose (iv) that lowers the mean arterial blood pressure by 30 mm Hg in renal hypertensive rats. Format: functional. To be noted: Artery.
The species named for data set [3] is Rattus norvegicus. Put plainly: Oral antihypertensive potency expressed as effective dose that lowers the mean arterial blood pressure by 30 mm Hg in renal hypertensive rats. Format: functional.
Data set [4] in a line: Oral bioavailability in dog (dosed as neat powder in hard gelatin capsule). Format: ADME, organism-based, Canis lupus familiaris. To be noted: in vivo.

For `CCCc1nc(CC)c(C(=O)O)n1Cc1ccc(-c2ccccc2-c2nnn[nH]2)cc1`, the bioavailability in data set [1] came to 15%. For the same compound, the results for the ED30 in data set [2] and in data set [3] were 0.005 mg/kg and 0.03 mg/kg, respectively. As for `CCCc1nc(C(C)C)c(C(=O)O)n1Cc1ccc(-c2ccccc2-c2nn[nH]n2)cc1`, the ED30 in data set [3] turned out to be 0.11 mg/kg. Same read-out and setting: then `CCCc1nc(CC)c(C(=O)OCc2oc(=O)oc2-c2ccccc2)n1Cc1ccc(-c2ccccc2-c2nn[nH]n2)cc1`, with 0.3 mg/kg; and `CCCc1nc(CC)c(C(=O)OCc2oc(=O)oc2C(C)(C)C)n1Cc1ccc(-c2ccccc2-c2nn[nH]n2)cc1`, with 0.1 mg/kg; and `CCCc1nc(CC)c(C(=O)OC(C)OC(=O)OC)n1Cc1ccc(-c2ccccc2-c2nn[nH]n2)cc1` (configuration not stated), with 0.02 mg/kg.

Turning to `CCCc1nc(CC(C)C)c(C(=O)O)n1Cc1ccc(-c2ccccc2-c2nn[nH]n2)cc1`, the ED30 in data set [3] turned out to be 0.87 mg/kg. Still for that read-out and setting: then `CCCc1nc(CCC)n(Cc2ccc(-c3ccccc3-c3nn[nH]n3)cc2)c1C=O`, with 0.3 mg/kg; and `CCCc1nc(CC)c(C(=O)OCOC(=O)OC)n1Cc1ccc(-c2ccccc2-c2nn[nH]n2)cc1`, with 0.03 mg/kg; and `CCCc1nc(C)c(C=O)n1Cc1ccc(-c2ccccc2-c2nn[nH]n2)cc1`, with 0.1 mg/kg.

`CCCc1nc(C(C)(C)C)c(C(=O)O)n1Cc1ccc(-c2ccccc2-c2nn[nH]n2)cc1` came in with an ED30 in data set [3] of 0.35 mg/kg. The same measure, in the same setting: then `CCCc1nc(CCC)n(Cc2ccc(-c3ccccc3-c3nn[nH]n3)cc2)c1C(=O)O`, with 0.63 mg/kg; and `CCCc1nc(C(C)(C)C)c(C=O)n1Cc1ccc(-c2ccccc2-c2nn[nH]n2)cc1`, with 0.048 mg/kg; and `CCCc1nc(CC)c(C(=O)OCOC(=O)OC(C)(C)C)n1Cc1ccc(-c2ccccc2-c2nn[nH]n2)cc1`, with 0.02 mg/kg. On the same count and under the same terms, then `CCCc1nc(C(C)CC)c(C=O)n1Cc1ccc(-c2ccccc2-c2nn[nH]n2)cc1` (configuration not stated), with 0.33 mg/kg; and `CCCc1nc(CC)c(C(=O)OCOC(=O)C(C)(C)C)n1Cc1ccc(-c2ccccc2-c2nn[nH]n2)cc1`, with 0.03 mg/kg. As for `CCCc1nc(CC)c(C=O)n1Cc1ccc(-c2ccccc2-c2nnn[nH]2)cc1`, the bioavailability in data set [1] is approximately 100%; in data set [4], 70%. The ED30 is 0.11 mg/kg in data set [2] and 0.027 mg/kg in data set [3]. Compound `CCCCc1nc(CCC)n(Cc2ccc(-c3ccccc3-c3nn[nH]n3)cc2)c1C=O` gave an ED30 in data set [3] of 1 mg/kg.

In data set [3], `CCCc1nc(CC)c(C(=O)OCOC(=O)C(C)C)n1Cc1ccc(-c2ccccc2-c2nn[nH]n2)cc1` came in with an ED30 of 0.03 mg/kg. For `CCCc1nc(CC)c(C(=O)OCc2oc(=O)oc2C)n1Cc1ccc(-c2ccccc2-c2nn[nH]n2)cc1`, the ED30 in data set [3] came out at 0.1 mg/kg.

`CCCc1nc(CC)c(C(=O)OC(C)OC(=O)OC(C)(C)C)n1Cc1ccc(-c2ccccc2-c2nn[nH]n2)cc1` (configuration not stated) returned an ED30 in data set [3] of 0.3 mg/kg.

For `CCCc1nc(CC(C)C)c(C=O)n1Cc1ccc(-c2ccccc2-c2nn[nH]n2)cc1`, the ED30 in data set [3] was determined as 0.29 mg/kg. In the case of `CCCc1nc(C(C)CC)c(C(=O)O)n1Cc1ccc(-c2ccccc2-c2nn[nH]n2)cc1` (configuration not stated), the ED30 in data set [3] is 0.46 mg/kg. For `CCCCc1nc(CCC)n(Cc2ccc(-c3ccccc3-c3nn[nH]n3)cc2)c1C(=O)O`, in data set [3], the ED30 stood at 1.3 mg/kg. The same measure, in the same setting: then `CCCc1nc(C)c(C(=O)O)n1Cc1ccc(-c2ccccc2-c2nn[nH]n2)cc1`, with 0.19 mg/kg; and `CCCc1nc(C(C)C)c(C=O)n1Cc1ccc(-c2ccccc2-c2nn[nH]n2)cc1`, with 0.13 mg/kg. Consider `CCCc1nc(C(F)(F)C(F)(F)F)c(C(=O)O)n1Cc1ccc(-c2ccccc2-c2nnn[nH]2)cc1`, for which the ED30 in data set [2] came out at 0.042 mg/kg; in data set [3], 0.21 mg/kg. This compound also came in with a bioavailability in data set [4] of 12%. For the compound `CCCCc1nc(Cl)c(C(=O)O)n1Cc1ccc(-c2ccccc2-c2nn[nH]n2)cc1` [CARBOXYLIC ACID METABOLITE], the ED30 in data set [2] turned out to be 0.038 mg/kg; in data set [3], 0.66 mg/kg.

Turning to `CCCCc1nc(Cl)c(CO)n1Cc1ccc(-c2ccccc2-c2nnn[nH]2)cc1` [LOSARTAN], the ED30 amounted to 0.8 mg/kg in data set [2] and 0.59 mg/kg in data set [3].

For the origin of these results see ChEMBL document CHEMBL1151001, “Nonpeptide angiotensin II receptor antagonists: the discovery of DMP 581 and DMP 811” (Bioorg Med Chem Lett, 1994).
